Results as given in US20180037605A1, “SYNTHETIC PEPTIDES AND ENZYMATIC FORMATION OF INTRACELLULAR HYDROGELS” (BRANDEIS UNIVERSITY, priority 2015, published 2018).
Where two headings read alike, the source gives them in different places.

What was measured:
HeLa cells = conditions: for uptake concentration (Cu) / intracellular concentration: 200 μM in culture medium
Experimental: The HeLa cell line CCL-2™ was purchased from the American Type Culture Collection (ATCC, Manassas, Va., USA).
The following formula was used to calculate the intracellular concentration of the peptides.
Intracellular concentration=(c*300 uL)/(cell number*4*10^−9 cm^3)
where c=(fluorescence−15406.76945)/74174.36908. An average size for the common cells used in cell culture (HeLa) is 15-20 microns in diameter for a suspended cell (volume 4/3πr^3=4000 μm^3 or 4×10^−9 cm^3) (Moran et al., Cell 141:1262 (2010), which is hereby incorporated by reference in its entirety). Methanol was used to break the cell membrane and fully dissolve compounds 1-t, 2-t, and 3.
To quantify the intracellular concentration of the D-peptide derivatives, the procedure illustrated in FIG. 9A was used to determine the cellular uptake of 1-t, 1, and 2-t after treating HeLa cells with these molecules, respectively. […] The “uptake concentration (Cu)” of 1-t or 1 is the sum of 3 and 1-t (or 1) inside the cells.

esterase = test: Esterase-catalysed conversion of 1-t to 3 (analytical HPLC); type: biochemical, porcine
[1] = 1.0 wt %, pH 7.4
Experimental: Peptides 1-t/1 were dissolved into distilled water, and the pH of the solution was adjusted carefully by adding 1M NaOH, and this was monitored with pH paper. After the pH of the solution reached 7.4, extra distilled water was added to make the final concentration, followed by the addition of esterase to induce enzymatic gelation.
To elucidate the enzyme-catalyzed self-assembly to form supramolecular nanofibrils inside cells after cellular uptake illustrated in FIG. 2A, the enzymatic transformation of 1-t (or 1) to 3 and the subsequent self-assembly of 3 at the concentration of 1.0 wt % was first examined. To study the enzymatic hydrogelation process of 1-t, analytical HPLC was used to evaluate the rate of enzymatic transformation and transmission electron microscopy (TEM) to examine the self-assembly.

O=C(CCC(=O)OCCNC(=O)[C@@H](Cc1ccccc1)NC(=O)[C@@H](Cc1ccccc1)NC(=O)CCNc1ccc([N+](=O)[O-])c2nonc12)NCCS(=O)(=O)O [1-t]
enhancement of cellular uptake compared with incubation concentration (HeLa cells; 50 μM, 24 hours): about 3 fold
uptake concentration (Cu) / intracellular concentration (HeLa cells; 24 hours): 1.6 mM
intracellular concentration after washing five times with PBS buffer (HeLa cells; 200 μM, 24 hour incubation): 1.4 mM
uptake concentration relative to incubation (extracellular) concentration (HeLa cells; 200 μM, 24 hours): 8 fold
Cu (HeLa cells; 200 μM, 48 hours): 2.4 mM
enhancement of cellular uptake compared with incubation concentration (HeLa cells; 200 μM, 48 hours): 12 fold
enhancement of cellular uptake compared with incubation concentration (HeLa cells; 500 μM, 24 hours): ~4.5 fold
intracellular concentration (HeLa cells; incubation medium 25 μM, 24 hours): 28 µM
1-t converted to 3 (HPLC) (esterase; 1-t 100 μM, esterase 1 U/mL, 24 hours): more than 50%
metabolised at 24 h, 1 wt % (esterase; pig, esterase from porcine liver, pH 7.4, 1-t 1.0 wt %, esterase 1 U/ml, 24 hours, read-out: 1-t converted to 3 (HPLC)): ~11%
metabolised at 1 min, 1 wt % (esterase; pig, esterase from porcine liver, 1-t 1.0 wt %, pH 7.4, esterase 1 U/ml, 1 min, read-out: 1-t converted to 3 (analytical HPLC)): 2.5%
solubility [1]: significantly enhanced the solubility

O=C(O)CCC(=O)OCCNC(=O)[C@@H](Cc1ccccc1)NC(=O)[C@@H](Cc1ccccc1)NC(=O)CCNc1ccc([N+](=O)[O-])c2nonc12 [compound 1]
uptake concentration (Cu) / intracellular concentration (HeLa cells; 24 hours): hardly detected
solubility [1]: less soluble than 1-t
